From patent publication EP0308020A2, “5-(aryl and heteroaryl)-6-(aryl and heteroaryl)-1,2-dihydro-2-oxo 3-pyridinecarboxylic acids and derivatives thereof” (Merck & Co., Inc., priority 1987, dated 1989)
Values after ≈ are worked out from the molar mass of the structure shown. Where two headings read alike, the source gives them in different places.

How the values were obtained:
Test in all cases: Agar diffusion assay for antibacterial activity (MIC)
Format in all cases: cell-based
Escherichia coli MB 2891 = settings: read-out: Minimum inhibitory conc.
Method: (§1) A stock solution of each test compound was prepared at a concentration of 1.28 mg/ml using sterile distilled water. After initial solubilization, two-fold dilutions were prepared and added as one-ml portions to 15 x 100 mm petri plates. A nine-ml portion of trypticase soy agar (TSA) was melted and added to each plate. The test compound and agar were mixed and allowed to cool. […] Controls were prepared using norfloxacin, coumermycin A-1, or novobiocin, and solvent.
(§2) Each plate was inoculated using a multipoint inoculator with 10⁵ colony-forming units (cfu) of the appropriate bacterium. Each bacterium was stored at -70°C before use and cultured in trypticase soy broth (TSB) at 35°C for 18 hours. The cultures, containing ca. 10⁹ cfu/ml, were diluted as necessary with TSB to provide concentrations of 10⁵ cfu/inoculation spot. The test plates were then incubated at 35°C for 20 hours. Minimum inhibitory concentrations (MIC) for each compound was the lowest concentration that allowed no growth, a barely visible haze, of five or fewer discrete colonies.
(§3) Table VI includes biological test results for representative compounds of this invention using the agar diffusion assay described above. The particular bacterial strains used are representative of organisms for which the compounds are useful as antibacterial agents.

Escherichia coli MB 5157 = settings: read-out: Minimum inhibitory conc.
Method: as §1, §2, §3

[1] = system: Escherichia coli MB 5158 (Norfloxacin-resistant strain); settings: 20 h, read-out: Minimum inhibitory conc.
Method: as §1, §2, §3

[2] = system: Klebsiella pneumoniae MB 4005; settings: read-out: Minimum inhibitory conc.
Method: as §1, §2, §3

[3] = system: Proteus mirabilis MB 2830; settings: read-out: Minimum inhibitory conc.
Method: as §1, §2, §3

[4] = system: Pseudomonas aeruginosa MB 2835; settings: MB2835, Ps. aer., strain MB 2835, trypticase soy agar, 10⁵ cfu, 35°C, 20 hours, read-out: Minimum inhibitory conc.
Method: as §1, §2, §3

[5] = system: Pseudomonas aeruginosa MB 5160 (Norfloxacin-resistant strain); settings: 20 h, read-out: Minimum inhibitory conc.
Method: as §1, §2, §3

[6] = system: Staphylococcus aureus MB 2865; settings: read-out: Minimum inhibitory conc.
Method: as §1, §2, §3

[7] = system: Staphylococcus aureus MB 4310; settings: read-out: Minimum inhibitory conc.
Method: as §1, §2, §3

[8] = system: Streptococcus faecalis MB 2864; settings: Enterococcus faecalis, read-out: Minimum inhibitory conc.
Method: as §1, §2, §3

[9] = MB2891, E. coli, strain MB 2891, trypticase soy agar, 10⁵ cfu, 35°C, 20 hours
[10] = MB5157, E. coli, strain MB 5157, trypticase soy agar, 10⁵ cfu, 35°C, 20 hours
[11] = MB4005, K. pneu., strain MB 4005, trypticase soy agar, 10⁵ cfu, 35°C, 20 hours
[12] = MB2830, Pr. mir., strain MB 2830, trypticase soy agar, 10⁵ cfu, 35°C, 20 hours
[13] = MB2865, St. aur., strain MB 2865, trypticase soy agar, 10⁵ cfu, 35°C, 20 hours
[14] = MB4310, St. aur., strain MB 4310, trypticase soy agar, 10⁵ cfu, 35°C, 20 hours
[15] = MB2864, Str. fae., strain MB 2864, trypticase soy agar, 10⁵ cfu, 35°C, 20 hours

Structure (SMILES) | MIC (Escherichia coli MB 2891; [9]) [µg/mL] | MIC (Escherichia coli MB 5157; [10]) [µg/mL] | MIC [1] [µg/mL] | MIC [2, 11] [µg/mL] | MIC [3, 12] [µg/mL] | MIC [4] [µg/mL] | MIC [5] [µg/mL] | MIC [6, 13] [µg/mL] | MIC [7, 14] [µg/mL] | MIC [8, 15] [µg/mL] | MIC ([3]; MB2830, 20 h) [µg/mL] | MIC (Escherichia coli MB 2891; MB2891, 20 h) [µg/mL] | MIC (Escherichia coli MB 5157; MB5157, 20 h) [µg/mL] | MIC ([2]; MB4005, 20 h) [µg/mL] | MIC ([6]; MB2865, 20 h) [µg/mL] | MIC ([7]; MB4310, 20 h) [µg/mL] | MIC ([8]; MB2864, 20 h) [µg/mL]
CN(C)c1ccc(-c2[nH]c(=O)c(C(=O)O)cc2-c2ccc(O)cc2)cc1 [Example 30] | 0.25 (≈ 0.714 µM) | 0.25 (≈ 0.714 µM) | > 128 | < 0.25 | 8 (≈ 22.8 µM) | > 128 | > 128 | 0.25 (≈ 0.714 µM) | 0.25 (≈ 0.714 µM) | 0.5 (≈ 1.43 µM) | – | – | – | – | – | – | –
COc1ccc(-c2[nH]c(=O)c(C(=O)O)cc2-c2ccc(F)cc2)cc1 [Example 32, 5-(4-Fluorophenyl)-1,2-dihydro-6-(4-methoxyphenyl)-2-oxo-3-pyridinecarboxylic acid] | 16 (≈ 47.2 µM) | 4 (≈ 11.8 µM) | > 128 | 1 (≈ 2.95 µM) | 32 (≈ 94.3 µM) | > 128 | > 128 | 2 (≈ 5.89 µM) | 1 (≈ 2.95 µM) | 16 (≈ 47.2 µM) | – | – | – | – | – | – | –
CN(C)c1ccc(-c2[nH]c(=O)c(C(=O)O)cc2-c2ccc(F)cc2)cc1 [Example 33] | 16 (≈ 45.4 µM) | 8 (≈ 22.7 µM) | > 128 | 8 (≈ 22.7 µM) | 128 (≈ 363 µM) | > 128 | > 128 | 2 (≈ 5.68 µM) | 2 (≈ 5.68 µM) | 128 (≈ 363 µM) | – | – | – | – | – | – | –
CN(C)c1ccc(-c2[nH]c(=O)c(C(=O)O)cc2-c2ccc(O)cc2)cc1F [Example 34] | 4 (≈ 10.9 µM) | 16 (≈ 43.4 µM) | > 128 | 16 (≈ 43.4 µM) | – | > 128 | > 128 | 2 (≈ 5.43 µM) | 8 (≈ 21.7 µM) | 16 (≈ 43.4 µM) | > 128 | – | – | – | – | – | –
CN(C)c1ccc(-c2[nH]c(=O)c(C(=O)O)cc2-c2ccc(O)cc2)c(F)c1 [Example 35] | 1 (≈ 2.71 µM) | 1 (≈ 2.71 µM) | > 128 | 1 (≈ 2.71 µM) | 32 (≈ 86.9 µM) | > 128 | > 128 | 0.5 (≈ 1.36 µM) | 1 (≈ 2.71 µM) | 4 (≈ 10.9 µM) | – | – | – | – | – | – | –
CSc1ccc(-c2[nH]c(=O)c(C(=O)O)cc2-c2ccc(F)cc2)cc1 [Example 36, 5-(4-fluorophenyl)-1,2-dihydro-6-[4-(methylthio)phenyl]-2-oxo-3-pyridine carboxylic acid] | 64 (≈ 180 µM) | 16 (≈ 45 µM) | > 128 | 16 (≈ 45 µM) | – | > 128 | > 128 | 8 (≈ 22.5 µM) | 8 (≈ 22.5 µM) | 64 (≈ 180 µM) | > 128 | – | – | – | – | – | –
O=C(O)c1cc(-c2ccc(F)cc2)c(-c2ccc(N3CCCCC3)cc2)[nH]c1=O [Example 42] | – | – | > 128 | – | – | > 128 | > 128 | 1 (≈ 2.55 µM) | 1 (≈ 2.55 µM) | 64 (≈ 163 µM) | > 128 | > 128 | > 128 | > 128 | – | – | –
O=C(O)c1cc(-c2ccc(F)cc2)c(-c2ccc(N3CCOCC3)cc2)[nH]c1=O [Example 43] | 16 (≈ 40.6 µM) | 8 (≈ 20.3 µM) | > 128 | 16 (≈ 40.6 µM) | 128 (≈ 325 µM) | > 128 | > 128 | 4 (≈ 10.1 µM) | 4 (≈ 10.1 µM) | 64 (≈ 162 µM) | – | – | – | – | – | – | –
CN1CCN(c2ccc(-c3[nH]c(=O)c(C(=O)O)cc3-c3ccc(F)cc3)cc2)CC1 [Example 44] | 8 (≈ 19.6 µM) | 16 (≈ 39.3 µM) | > 128 | 32 (≈ 78.5 µM) | – | > 128 | > 128 | 32 (≈ 78.5 µM) | 16 (≈ 39.3 µM) | 128 (≈ 314 µM) | > 128 | – | – | – | – | – | –
CS(=O)(=O)c1ccc(-c2[nH]c(=O)c(C(=O)O)cc2-c2ccc(F)cc2)cc1 [Example 47, 5-(4-Fluorophenyl)-1,2-dihydro-6-[4-(methylsulfonyl)phenyl]-2-oxo-3-pyridinecarboxylic acid] | – | – | > 128 | – | – | > 128 | > 128 | – | – | – | > 128 | > 128 | > 128 | > 128 | > 128 | > 128 | > 128
C[S+]([O-])c1ccc(-c2[nH]c(=O)c(C(=O)O)cc2-c2ccc(F)cc2)cc1 (stereo not drawn) [Example 48] | – | – | > 128 | – | – | > 128 | > 128 | – | – | – | > 128 | > 128 | > 128 | > 128 | > 128 | > 128 | > 128
C[N+](C)([O-])c1ccc(-c2[nH]c(=O)c(C(=O)O)cc2-c2ccc(F)cc2)cc1 [Example 49] | 32 (≈ 86.9 µM) | 4 (≈ 10.9 µM) | > 128 | 8 (≈ 21.7 µM) | 64 (≈ 174 µM) | > 128 | > 128 | 1 (≈ 2.71 µM) | 0.5 (≈ 1.36 µM) | 16 (≈ 43.4 µM) | – | – | – | – | – | – | –
C[N+](C)([O-])c1ccc(-c2[nH]c(=O)c(C(=O)O)cc2-c2ccc(O)cc2)cc1 [Example 50] | 8 (≈ 21.8 µM) | 8 (≈ 21.8 µM) | > 128 | 16 (≈ 43.7 µM) | 128 (≈ 349 µM) | > 128 | > 128 | 4 (≈ 10.9 µM) | 8 (≈ 21.8 µM) | 16 (≈ 43.7 µM) | – | – | – | – | – | – | –
CN(C)c1ccc(-c2c(-c3ccc(O)cc3)cc(C(=O)O)c(=O)n2C)cc1 [Example 51, 6-[4-(Dimethylamino)phenyl]-1,2-dihydro-5-(4-hydroxyphenyl)-1-methyl-2-oxo-3-pyridinecarboxylic acid] | 0.5 (≈ 1.37 µM) | 2 (≈ 5.49 µM) | > 128 | 16 (≈ 43.9 µM) | 32 (≈ 87.8 µM) | > 128 | > 128 | 1 (≈ 2.74 µM) | 0.5 (≈ 1.37 µM) | 128 (≈ 351 µM) | – | – | – | – | – | – | –
CN(C)c1ccc(-c2c(-c3ccc(F)cc3)cc(C(=O)O)c(=O)n2C)cc1 [Example 52] | 2 (≈ 5.46 µM) | 4 (≈ 10.9 µM) | > 128 | 64 (≈ 175 µM) | – | > 128 | > 128 | 2 (≈ 5.46 µM) | 2 (≈ 5.46 µM) | – | > 128 | – | – | – | – | – | > 128
